{"source": "patent US9220680B2", "about": "“Compositions and methods for localized drug delivery through mammary papillae” (South Dakota State University, priority 2012, dated 2015)", "key": {"[1]": {"experiment": "Transmammary permeation across porcine mammary papilla with and without removal of the keratin plug (Experiments 7-10)", "type": "in vitro ADME", "conditions": "porcine mammary papilla", "from_the_text": "Keratin plug was removed from human and porcine mammary papilla using an alcoholic cotton swab. The swab was gently rubbed on the surface of the mammary papilla. The mammary papilla was observed under the microscope to confirm the removal of the plug from the surface and to confirm that epidermis of the mammary papilla was not damaged during this procedure.\nThe drug solutions were spiked with radioactive substances. […] Receptor medium was PBS with 7.4 pH.\n(§1) Mammary papillae tissues were thawed. Keratin plugs were removed from the mammary papilla tissues using swabs with ethanol. […] The drug solutions were spiked with radioactive substances. […] Receptor medium was PBS with 7.4 pH.\nas §1\nMammary papillae tissues were thawed. Keratin plugs were removed from the mammary papilla tissues using swabs with ethanol. […] The drug solutions were spike with radioactive substances. […] Receptor medium was PBS with 7.4 pH."}, "[2]": {"experiment": "In vitro penetration and permeation via excised porcine mammary papilla, Franz diffusion cell (Example 1)", "type": "in vitro ADME", "procedure": "Drug penetration and permeation via mammary papillae was performed in a Franz diffusion cell using excised porcine mammary papilla. […] The transport studies were performed at time points for 6 and 48 hours.\nIn a separate study to evaluate the drug retention and disposition, the treatment was removed after 6 hours and the study was continued until the 48 hour mark. Samples were withdrawn from the receptor compartment at different time points. At the end of study, the mammary papilla was cut to 2 mm thick cylindrical sections from the top to the base of the tissue and was digested using a tissue solubilizer. The drug concentrations were determined by liquid scintillation counting.\nMethods for the preparation of porcine mammary papilla. Freshly excised strips of porcine mammary papilla (6-7 months old animals) were washed with deionized water followed by removal of subcutaneous fatty tissue using a scalpel. Keeping the mammary papilla in the center, 3 cm×3 cm sized specimens of the tissue were excised, subcutaneous fat tissue was removed, and the tissue was frozen at −20° C. until used for the drug penetration and permeation studies.\nBreast tissue was mounted between the two compartments of a vertical Franz diffusion cell (FDC) with breast tissue sandwiched between donor and receptor compartments. A mammary papilla was set in upright position inside the donor compartment of Franz diffusion cell. […] Samples were withdrawn from the receptor at different time points for 48 hours to determine drug concentration by radioactive count. At the end of 48 hours, tissue samples were taken for drug content determination. […]\nIn a second study, the mammary papillae in Franz diffusion cells were treated with the drugs for 48 hours and the permeation was followed through 48 hours. This analysis provided information regarding any saturation from drug treatment for extended periods of time. […]\nExtraction of drugs from the mammary papilla. At the end of permeation study, the mammary papilla was removed from Franz diffusion cell and thoroughly washed with deionized water and blotted dried. Approximately 2 mm thick sections of the tissue were taken using a scalpel. These sections were homogenized, the drug was extracted, and the drug concentration was determined by radioactive counts."}, "[3]": {"conditions": "cited from earlier work"}, "[4]": {"experiment": "Transmammary permeation across human mammary papilla with and without removal of the keratin plug (Experiments 12-18)", "type": "in vitro ADME", "conditions": "for lag time / cumulative amount permeated / Drug retention in tissue / Flux: value (SEM); for cumulative amount permeated: 48 hours; for Drug retention in tissue: end of 48 hours", "from_the_text": "Mammary papillae tissues were thawed. […] The drug solutions were spiked with radioactive substances. […] Receptor medium was PBS with 7.4 pH. […] Results may be seen in FIG. 37 and Table 13.\nMammary papillae tissues were thawed. […] The drug solutions were spiked with radioactive substances. […] Receptor medium was PBS with 7.4 pH. […] Results may be seen in FIG. 38 and Table 15.\nMammary papillae tissues were thawed. […] The drug solutions were spiked with radioactive substances. […] Receptor medium was PBS with 7.4 pH. […] Results may be seen in FIG. 39 and Table 17.\nMammary papillae tissues were thawed. […] The drug solutions were spiked with radioactive substances. […] Receptor medium was PBS with 7.4 pH. […] Results may be seen in FIG. 40.\nMammary papillae and skin tissues were thawed. […] The drug solutions were spiked with radioactive substances. […] Receptor medium was PBS with 7.4 pH. […] Results may be seen in FIG. 41 and Table 20.\nMammary papillae and skin tissues were thawed. […] The drug solutions were spiked with radioactive substances. […] Receptor medium was PBS with 7.4 pH. […] Results may be seen in FIG. 42 and Table 22.\nMammary papillae tissues were thawed. […] The drug solutions were spiked with radioactive substances. […] Receptor medium was PBS with 7.4 pH. […] Results may be seen in FIG. 43 and Table 24."}, "[5]": {"conditions": "rat"}, "[6]": {"conditions": "excised porcine mammary papilla, saturated solution in ethanol:water (50:50), 48 h, mean ± SEM, n=3"}, "[7]": {"conditions": "porcine mammary papilla, end of 48 h, mean ± SEM, n=3"}, "[8]": {"conditions": "5FU 20 mg/ml, human mammary papilla with keratin plug removal"}, "[9]": {"conditions": "5FU 20 mg/ml, human mammary papilla without keratin plug removal"}}, "note": "Entries after “also recorded” stand apart in the source; their conditions may differ. Where two headings read alike, the source gives them in different places.", "data": [{"smiles": "O=c1[nH]cc(F)c(=O)[nH]1", "note": "[5FU, 5-fluorouracil]", "values": [{"measurement": "Transmammary flux", "setting": "[1]", "value": 10.79, "unit": "μg/sq·cm/h"}, {"measurement": "Change of permeation upon removal of the keratin plugs (in words)", "setting": "[1]; donor in 50:50 ethanol:water, 48 hours", "value": "increases slightly, though statistically not significant"}, {"measurement": "Lag time", "setting": "[2]; excised porcine mammary papilla, Franz diffusion cell, saturated solution in ethanol:water (50:50), 48 h, mean ± SEM, n=3", "value": "8.18 ± 0.79", "unit": "h"}, {"measurement": "Cumulative % permeated", "setting": "[2]; [6]", "value": "5.71 ± 0.06", "unit": "%"}, {"measurement": "Flux × 10^3", "setting": "[2]; [6]", "value": "38.46 ± 2.38", "unit": "μM · cm^2 · hr^−1"}, {"measurement": "Permeability coefficient × 10^3", "setting": "[2]; [6]", "value": "0.25 ± 0.015", "unit": "cm^2 · hr^−1"}, {"measurement": "cumulative amount permeated", "setting": "[2]; [6]", "value": "4.38 ± 0.04", "unit": "µM"}, {"measurement": "Cumulative % retained", "setting": "[2]; [7]", "value": "4.94 ± 0.74", "unit": "%"}, {"measurement": "Cumulative amount retained", "setting": "[2]; [7]", "value": "3.80 ± 0.56", "unit": "µM"}, {"measurement": "Drug extraction from 2 mm thick mammary papilla sections, Section A (tip)", "setting": "[2]; [7]", "value": "13.47 ± 1.35", "unit": "µM/g"}, {"measurement": "Drug extraction from 2 mm thick mammary papilla sections, Section B", "setting": "[2]; [7]", "value": "11.78 ± 1.69", "unit": "µM/g"}, {"measurement": "Drug extraction from 2 mm thick mammary papilla sections, Section C", "setting": "[2]; [7]", "value": "9.80 ± 1.44", "unit": "µM/g"}, {"measurement": "Drug extraction from 2 mm thick mammary papilla sections, Section D (base)", "setting": "[2]; [7]", "value": "5.84 ± 1.69", "unit": "µM/g"}, {"measurement": "Permeation across mammary papilla (in words)", "setting": "[2]; porcine mammary papilla, treatment up to 48 hours", "value": "significant amount of 5FU passes through the mammary papilla"}, {"measurement": "Log P", "setting": "[3]", "value": "−0.89"}, {"measurement": "lag time", "setting": "[4]; 5FU 20 mg/ml in 50:50 ethanol:water, human mammary papilla with keratin plug removal, n=3-4", "value": "8.76 (1.46) hours"}, {"measurement": "cumulative amount permeated", "setting": "[4]; [8]", "value": "5.06 (1.17) μmole"}, {"measurement": "Drug retention in tissue", "setting": "[4]; [8]", "value": "7.30 (2.81) umole/g of tissue"}, {"measurement": "Flux", "setting": "[4]; [8]", "value": "0.18 (0.05) μmole/cm^2/hour"}, {"measurement": "cumulative amount permeated", "setting": "[4]; [9]", "value": "0.71 (0.08) μmole"}, {"measurement": "Drug retention in tissue", "setting": "[4]; [9]", "value": "2.28 (0.04) umole/g of tissue"}, {"measurement": "Flux", "setting": "[4]; [9]", "value": "0.03 (0.00) μmole/cm^2/hour"}, {"measurement": "lag time", "setting": "[4]; [9]", "value": "17.96 (3.80) hours"}, {"measurement": "Permeation profile via human vs porcine mammary papillae", "setting": "[4]; after keratin plug removal, 48 hours (Experiment 15)", "value": "similar"}, {"measurement": "Increase in permeation across the tissues upon removal of the keratin plugs", "setting": "[4]; human mammary papilla", "value": "more than 7 fold"}, {"measurement": "Profile of 5FU in plasma", "setting": "[5]; intravenous injection", "value": "quickly eliminating from the blood"}, {"measurement": "Retention of 5FU in mammary papilla", "setting": "[5]; intravenous injection, 30 minutes", "value": "some accumulation of 5FU into the mammary papilla"}, {"measurement": "5FU retention into the vital organs (kidneys, heart, liver, lungs, spleen and brain)", "setting": "[5]; topical application (transmammary and transdermal) vs intravenous injection", "value": "several folds lower than that after intravenous injection"}, {"measurement": "5FU in blood / plasma", "setting": "[5]; topical delivery (transmammary and transdermal), 6 h", "value": "no amount of 5FU was observed into the blood; also recorded: below the level of detection"}, {"measurement": "Retention of 5FU in mammary papilla", "setting": "[5]; transdermal treatment, 6 h", "value": "no 5FU was observed into the mammary papilla"}, {"measurement": "Amount of 5FU in mammary gland", "setting": "[5]; transmammary treatment 250 μl of 10 mg/ml for 6 h, compared with intravenous and transdermal", "value": "highest amount of 5FU in mammary gland"}, {"measurement": "Retention of 5FU in mammary papilla", "setting": "[5]; transmammary treatment, 6 h", "value": "significant retention of 5FU into the mammary papilla"}]}]}
